Reference: US8486977B2, “1,2,3-triazole derivatives for use as stearoyl-CoA desaturase inhibitors” (GlaxoSmithKline LLC, priority 2007, dated 2013)

System: not given
Assay: not given
Settings: not given

Row | SMILES | melting point
1 | Cc1c(C(=O)Nc2ccc(CO)c(CO)c2)nnn1Cc1cccc(F)c1 [Example 85, N-[3,4-bis(Hydroxymethyl)phenyl]-1-[(3-fluorophenyl)methyl]-5-methyl-1H-1,2,3-triazole-4-carboxamide] | 157.2 °C
2 | CCOC(=O)c1ccc(NC(=O)c2nnn(Cc3ccc(Cl)c(Cl)c3)c2C)cc1 [Example 48, Ethyl 4-[({1-[(3,4-dichlorophenyl)methyl]-5-methyl-1H-1,2,3-triazol-4-yl}carbonyl)amino]benzoate] | 167 °C
3 | CNC(=O)c1ccc(OC)c(NC(=O)c2nnn(Cc3ccc(Cl)c(Cl)c3)c2C)c1 [Example 69, 1-[(3,4-Dichlorophenyl)methyl]-5-methyl-N-[5-[(methylamino)carbonyl]-2-(methyloxy)phenyl]-1H-1,2,3-triazole-4-carboxamide] | 222.2 °C
4 | Cc1c(C(=O)Nc2ccc(CO)c(CO)c2)nnn1Cc1ccccc1 [Example 80, N-[3,4-bis(Hydroxymethyl)phenyl]-5-methyl-1-(phenylmethyl)-1H-1,2,3-triazole-4-carboxamide] | 171.4 °C
5 | CNC(=O)c1cc(CO)cc(NC(=O)c2nnn(Cc3ccc(Cl)c(Cl)c3)c2C)c1 [Example 92, 1-[(3,4-Dichlorophenyl)methyl]-N-{3-(hydroxymethyl)-5-[(methylamino)carbonyl]phenyl}-5-methyl-1H-1,2,3-triazole-4-carboxamide] | 223 to 225 °C
6 | Cc1c(C(=O)Nc2ccc(F)c(CO)c2)nnn1Cc1cc(Cl)cc(Cl)c1 [Example 59, 1-[(3,5-Dichlorophenyl)methyl]-N-[4-fluoro-3-(hydroxymethyl)phenyl]-5-methyl-1H-1,2,3-triazole-4-carboxamide] | 178 °C
7 | Cc1c(C(=O)Nc2cccc(CO)c2)nnn1Cc1cc(Cl)cc(Cl)c1 [Example 40, 1-[(3,5-Dichlorophenyl)methyl]-N-[3-(hydroxymethyl)phenyl]-5-methyl-1H-1,2,3-triazole-4-carboxamide] | 159 °C
8 | CC(=O)OCc1cccc(NC(=O)c2nnn(Cc3ccc(Cl)c(Cl)c3)c2C)c1 [Example 70, {3-[({1-[(3,4-Dichlorophenyl)methyl]-5-methyl-1H-1,2,3-triazol-4-yl}carbonyl)amino]phenyl}methyl acetate] | > 70 °C
9 | COC(=O)c1ccc(OC)c(NC(=O)c2nnn(Cc3cc(Cl)cc(Cl)c3)c2C)c1 [Example 41, Methyl 3-[({1-[(3,5-dichlorophenyl)methyl]-5-methyl-1H-1,2,3-triazol-4-yl}carbonyl)amino]-4-(methyloxy)benzoate] | 213 °C

Biological target: T1, SCD (Rattus norvegicus, UniProt P07308)
T1 construct: SCD-containing rat microsomes (2 μg protein); from tissue
T1 sequence (P07308 1-358): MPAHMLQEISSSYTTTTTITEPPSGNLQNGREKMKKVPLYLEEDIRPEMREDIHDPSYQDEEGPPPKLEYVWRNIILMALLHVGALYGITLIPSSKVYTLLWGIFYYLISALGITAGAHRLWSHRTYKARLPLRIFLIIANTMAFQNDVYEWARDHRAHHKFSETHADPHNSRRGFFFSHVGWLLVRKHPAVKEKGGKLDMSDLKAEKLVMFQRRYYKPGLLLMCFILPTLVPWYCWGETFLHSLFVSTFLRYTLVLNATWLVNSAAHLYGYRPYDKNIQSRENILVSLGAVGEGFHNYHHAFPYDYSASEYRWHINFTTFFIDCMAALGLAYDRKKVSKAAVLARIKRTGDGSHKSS
Assay: in vitro assay for SCD activity based on production of [3H]H2O
Format: biochemical
Settings: SCD-containing rat microsomes (2 μg protein), [9,10-3H] stearoyl Coenzyme A 1 μM, 6 min incubation
Procedure: The compounds of the present invention may be analysed in vitro for SCD activity using an assay based on the production of [^3H]H2O, which is released during the enzyme-catalyzed generation of the monounsaturated fatty acyl CoA product. The assay is performed in a 96-well filtration plates. The titrated substrate used in the assay is the [9,10-^3H] stearoyl Coenzyme A. After incubation for 6 minutes of SCD-containing rat microsomes (2 μg protein) and substrate (1 μM), the labelled fatty acid acyl-CoA species and microsomes are absorbed with charcoal and separated from [^3H]H2O by centrifugation. The formation of [^3H]H2O is used as a measure of SCD activity. Compounds at concentrations starting at 10 μM to 0.1 nM or vehicle (DMSO) are preincubated for 5 minutes with the microsomes before addition of the substrate. The concentration-responses are fitted with sigmoidal curves to obtain IC50 values.

Row | SMILES | IC50
10 | COC(=O)c1cc(NC(=O)c2nnn(Cc3ccccc3)c2C)cc(C(=O)OC)c1 [Dimethyl 5-({[5-methyl-1-(phenylmethyl)-lH-1,2,3-triazol-4-yl]carbonyl}amino)-1,3-benzenedicarboxylate] | > 10 µM
11 | COC(=O)c1cccc(NC(=O)c2nnn(Cc3ccc(Cl)c(Cl)c3)c2C)c1C [Methyl 3-[({1-[(3,4-dichlorophenyl)methyl]-5-methyl-1H-1,2,3-triazol-4-yl}carbonyl)amino]-2-methylbenzoate] | > 10 µM
12 | COC(=O)c1cc(NC(=O)c2nnn(Cc3ccc(Cl)c(Cl)c3)c2C)ccc1OC [Methyl 5-[({1-[(3,4-dichlorophenyl)methyl]-5-methyl-1H-1,2,3-triazol-4-yl}carbonyl)amino]-2-(methyloxy)benzoate] | > 10 µM
13 | COC(=O)c1cc(NC(=O)c2nnn(Cc3cccc(Cl)c3)c2C)cc(C(=O)OC)c1 [Dimethyl 5-[({1-[(3-chlorophenyl)methyl]-5-methyl-1H-1,2,3-triazol-4-yl}carbonyl)amino]-1,3-benzenedicarboxylate] | > 10 µM
14 | COC(=O)c1cc(NC(=O)c2nnn(Cc3ccc(Cl)c(Cl)c3)c2C)cc(C(=O)OC)c1 [Dimethyl 5-[({1-[(3,4-dichlorophenyl)methyl]-5-methyl-1H-1,2,3-triazol-4-yl}carbonyl)amino]-1,3-benzenedicarboxylate] | > 10 µM
15 | COC(=O)c1ccc(NC(=O)c2nnn(Cc3ccccc3)c2C)cc1C(=O)OC [Dimethyl 4-({[5-methyl-1-(phenylmethyl)-lH-1,2,3-triazol-4-yl]carbonyl}amino)-1,2-benzenedicarboxylate] | > 10 µM
16 | COC(=O)c1cc(NC(=O)c2nnn(Cc3ccc(F)cc3)c2C)cc(C(=O)OC)c1 [Dimethyl 5-[({1-[(4-fluorophenyl)methyl]-5-methyl-1H-1,2,3-triazol-4-yl}carbonyl)amino]-1,3-benzenedicarboxylate] | > 10 µM
17 | Cc1c(C(=O)Nc2cc(C(=O)O)cc(C(=O)O)c2)nnn1Cc1cccc(Cl)c1 [5-[({1-[(3-Chlorophenyl)methyl]-5-methyl-1H-1,2,3-triazol-4-yl}carbonyl)amino]-1,3-benzenedicarboxylic acid] | > 10 µM
18 | CNC(=O)c1cc(NC(=O)c2nnn(Cc3ccc(Cl)c(Cl)c3)c2C)cc(C(=O)NC)c1 [5-[({1-[(3,4-Dichlorophenyl)methyl]-5-methyl-1H-1,2,3-triazol-4-yl}carbonyl)amino]-N,N′-dimethyl-1,3-benzenedicarboxamide] | > 10 µM
19 | Cc1c(C(=O)Nc2ccc(OCCC(C)C)cc2)nnn1Cc1ccc(-c2ccccc2)cc1 [1-(4-Biphenylylmethyl)-5-methyl-N-{4-[(3-methylbutyl)oxy]phenyl}-1H-1,2,3-triazole-4-carboxamide] | > 10 µM
20 | CNC(=O)c1cccc(NC(=O)c2nnn(Cc3ccc(Cl)c(Cl)c3)c2C)c1C [1-[(3,4-dichlorophenyl)methyl]-5-methyl-N-{2-methyl-3-[(methylamino)carbonyl]phenyl}-1H-1,2,3-triazole-4-carboxamide] | > 10 µM
21 | COc1ccc(NC(=O)c2nnn(Cc3ccc(C(C)C)cc3)c2C)cc1OC [N-[3,4-Bis(methyloxy)phenyl]-5-methyl-1-{[4-(1-methylethyl)phenyl]methyl}-1H-1,2,3-triazole-4-carboxamide] | > 10 µM
